Test results as given in patent publication US20260138976A1 (Hoffmann-La Roche Inc., priority 2022, published 2026).
pEC50: −log10 of the molar value.

Tested on: primary human T-cells
Assay: IL2 secretion measurements (24 h, CD3-stimulated T-cells, PBS counter screen)
Type: cell-based
Conditions: for Emax IL2 (% activation): CD3 condition, normalised to DMSO (neutral) and 20 μM reference compound A1 = 100%; for pEC50: Homo sapiens, T-cell, CD3-stimulated primary human T-cells, IL2 secretion, fitted sigmoidal curve, read-out: Tcell IL2 CD3 EC50
Procedure: As readouts for T-cell activation, 1L2 secretion after 24 hours and proliferation after 5 days was measured. Increases in IL2 secretion and proliferation upon compound treatment were assessed as the % of the maximum of reference compound A1. WO 2016/139181 discloses reference compound A1 as example 70. As a counter screen and to make sure that no unwanted TCR-independent activation was triggered, PBS conditions were run for all compounds.
Expanded primary human T-cells were thawed and cultured in RPMI 1640 (Gibco, #61870-010)+5% human serum (HS, Sigma, #H3667)+1 mM Sodium Pyruvate (Gibco, #11360-039)+50 μM 2-mercaptoethanol (Gibco, #31350-010) and 1× Pen-Strep (Life Technologies, #15140122) medium at density of 2 Mio/ml for 3 hours in 5% CO2, 37° C. and 95% humidity. For coating of plates, […] or PBS++ with CD3 antibody (concentration depending on donor and determined by CD3 titrations) was added 100 μl/well to Poly-D Lysine coated 96-well plates. Plates were sealed and incubated at room temperature for 3 hours on a table-top rocking platform. After incubation, plates were washed once with PBS−− and filled with 40 μl/well culture medium only. Compounds were then added (see next section) to medium only plates. After 3 hours of culturing the T-cells, cells were filtered through a cell strainer (Miltenyi Biotech, #130-041-407), counted again and concentration was adjusted to 1.25 Mio/ml.
Cells were then seeded 80 μl/well to the 40 μl/well including dispensed compounds according to plate layout. By adding cells, compounds were further diluted 1:3, and resulting in 100 k cells/120 μl/well. After 24 hours 40 μl of supernatant was collected carefully from the top while not disturbing the cells and transferred into a round bottom 96 well plate. Collected and frozen supernatant was used for detection of IL2 using the IL-2 Human ProQuantum Immunoassay Kit (Invitrogen) or using the Human IL-2 ELISA Kit (Thermo Fisher).
Compounds were added in a 5 or 6 pt dose response with the Tecan D300e Digital Dispenser, all conditions 3 times more concentrated than the end-concentration, since cells are added afterwards (80 μl cells to 40 μl prepared medium with treatment). The DR was starting at 20 μM or 10 μM final top concentration and a dilution factor of 3.333. The positive control was the reference compound A1 that was added in a dose response as well, additionally to 3 wells of only 20 μM representing the positive stimulator control. All wells were normalized with DMSO to a final concentration of 0.6% (0.2% end-concentration).
The immunoassay is done following the manufacturer's manual (Invitrogen, #A35603). Additional information: For the immunoassay, MicroAmp™ EnduraPlate™ Optical 384-Well plates are used. Frozen supernatant is thawed and centrifuged for 5 minutes at 1000×g, both steps at 4° C. After centrifugation, required sample amount is taken from the top, and in a separate LightCycler V-bottom plate (working plate) diluted with assay dilution buffer, dilution factor depending on the PBS or CD3 condition but at least 1:3. IL-2 standard and blanks are prepared in the same V-bottom plate, standard with a range of 0.0128-5000 pg/ml (extended version). After preparation, 5 μl of sample dilutions or standard/blanks are transferred to the optical 384-well plate (assay plate) and the 10 μl reaction protocol is being followed. For measurement, the QuantStudio 12K Flex system is used. Raw data is extracted and IL-2 concentrations are calculated with the Thermo Fisher online app (apps.thermofisher.com/apps/proquantum).
ELISA is done following the manufacturer's manual (Thermo Fisher Scientific, #88-7025-88). Additional information: For the ELISA Nunc MaxiSorp 96 well plates are used. Frozen supernatant is thawed and centrifuged for 5 minutes at 1000×g, both steps at 4° C. […]

Row | Compound | Emax IL2 (% activation) | pEC50
1 | CC1(Nc2nnc(-c3cc4c(cc3F)S(=O)(=O)C[C@H](N)C(=O)N4Cc3ccc(-c4noc(C(F)(F)F)n4)cc3)o2)CC(F)(F)C1 [Example 3, (3R)-3-amino-7-[5-[(3,3-difluoro-1-methyl-cyclobutyl)amino]-1,3,4-oxadiazol-2-yl]-8-fluoro-1,1-dioxo-5-[[4-[5-(trifluoromethyl)-1,2,4-oxadiazol-3-yl]phenyl]methyl]-2,3-dihydro-1λ^6,5-benzothiazepin-4-one] | 594 | 6.67
2 | N[C@H]1CS(=O)(=O)c2cc(F)c(-c3nnc(N4CCOC5(CC5)C4)o3)cc2N(Cc2ccc(-c3noc(C(F)(F)F)n3)cc2)C1=O [Example 4, (3R)-3-amino-8-fluoro-7-[5-(4-oxa-7-azaspiro[2.5]octan-7-yl)-1,3,4-oxadiazol-2-yl]-1,1-dioxo-5-[[4-[5-(trifluoromethyl)-1,2,4-oxadiazol-3-yl]phenyl]methyl]-2,3-dihydro-1λ^6,5-benzothiazepin-4-one] | 220 | 6.68
3 | N[C@H]1CS(=O)(=O)c2cc(F)c(-c3nnc(N4CCC(F)(F)CC4)o3)cc2N(Cc2ccc(-c3noc(C(F)(F)F)n3)cc2)C1=O [Example 5, (3R)-3-amino-7-[5-(4,4-difluoro-1-piperidyl)-1,3,4-oxadiazol-2-yl]-8-fluoro-1,1-dioxo-5-[[4-[5-(trifluoromethyl)-1,2,4-oxadiazol-3-yl]phenyl]methyl]-2,3-dihydro-1λ^6,5-benzothiazepin-4-one] | 537 | 6.49
4 | COc1ccc(-c2ccc(CN3C(=O)[C@@H](N)CS(=O)(=O)c4cc(F)c(-c5noc(C6(N)COC6)n5)cc43)cc2)cc1 [Example 8, (3R)-3-amino-7-[5-(3-aminooxetan-3-yl)-1,2,4-oxadiazol-3-yl]-8-fluoro-5-[[4-(4-methoxyphenyl)phenyl]methyl]-1,1-dioxo-2,3-dihydro-1λ^6,5-benzothiazepin-4-one] | 96 | 5.25
5 | N[C@H]1CS(=O)(=O)c2cc(F)c(-c3noc(C4(N)COC4)n3)cc2N(Cc2ccc(-c3noc(C(F)(F)F)n3)cc2)C1=O [Example 9, (3R)-3-amino-7-[5-(3-aminooxetan-3-yl)-1,2,4-oxadiazol-3-yl]-8-fluoro-1,1-dioxo-5-[[4-[5-(trifluoromethyl)-1,2,4-oxadiazol-3-yl]phenyl]methyl]-2,3-dihydro-1λ^6,5-benzothiazepin-4-one] | 558 | 5.96
6 | N[C@H]1CS(=O)(=O)c2cc(F)c(-c3noc(C4(N)COC4)n3)cc2N(Cc2ccc(-c3ccc(C(F)(F)F)cn3)cc2)C1=O [Example 10, (3R)-3-amino-7-[5-(3-aminooxetan-3-yl)-1,2,4-oxadiazol-3-yl]-8-fluoro-1,1-dioxo-5-[[4-[5-(trifluoromethyl)-2-pyridyl]phenyl]methyl]-2,3-dihydro-1λ^6,5-benzothiazepin-4-one] | 123 | 5.03
7 | N[C@H]1CS(=O)(=O)c2cc(F)c(-c3noc(N4CCOC5(CC5)C4)n3)cc2N(Cc2ccc(-c3ccc(C(F)(F)F)cc3)nc2)C1=O [Example 11, (3R)-3-amino-8-fluoro-7-[5-(4-oxa-7-azaspiro[2.5]octan-7-yl)-1,2,4-oxadiazol-3-yl]-1,1-dioxo-5-[[6-[4-(trifluoromethyl)phenyl]-3-pyridyl]methyl]-2,3-dihydro-1λ^6,5-benzothiazepin-4-one] | 64 | 5.11
8 | N[C@H]1CS(=O)(=O)c2cc(F)c(-c3noc(N4CCOC(F)(F)C4)n3)cc2N(Cc2ccc(-c3noc(C(F)(F)F)n3)nc2)C1=O [Example 12, (3R)-3-amino-7-[5-(2,2-difluoromorpholin-4-yl)-1,2,4-oxadiazol-3-yl]-8-fluoro-1,1-dioxo-5-[[6-[5-(trifluoromethyl)-1,2,4-oxadiazol-3-yl]-3-pyridyl]methyl]-2,3-dihydro-1λ^6,5-benzothiazepin-4-one] | 167 | 5.52
9 | N[C@H]1CS(=O)(=O)c2cc(F)c(-c3noc(N4CCOC(F)(F)C4)n3)cc2N(Cc2ccc(-c3ccc(C(F)(F)F)cc3)nc2)C1=O [Example 13, (3R)-3-amino-7-[5-(2,2-difluoromorpholin-4-yl)-1,2,4-oxadiazol-3-yl]-8-fluoro-1,1-dioxo-5-[[6-[4-(trifluoromethyl)phenyl]-3-pyridyl]methyl]-2,3-dihydro-1λ^6,5-benzothiazepin-4-one] | 26 | < 5.00
10 | N[C@H]1CS(=O)(=O)c2cc(F)c(-c3noc(N4CCOC5(CC5)C4)n3)cc2N(Cc2ccc(-c3noc(C(F)(F)F)n3)nc2)C1=O [Example 14, (3R)-3-amino-8-fluoro-7-[5-(4-oxa-7-azaspiro[2.5]octan-7-yl)-1,2,4-oxadiazol-3-yl]-1,1-dioxo-5-[[6-[5-(trifluoromethyl)-1,2,4-oxadiazol-3-yl]-3-pyridyl]methyl]-2,3-dihydro-1λ^6,5-benzothiazepin-4-one] | 93 | 5.40
11 | N#CC1(c2nc(-c3cc4c(cc3F)S(=O)(=O)C[C@H](N)C(=O)N4Cc3ccc(-c4noc(C(F)(F)F)n4)cc3)no2)CC1 [Example 16, 1-[3-[(3R)-3-amino-8-fluoro-1,1,4-trioxo-5-[[4-[5-(trifluoromethyl)-1,2,4-oxadiazol-3-yl]phenyl]methyl]-2,3-dihydro-1λ^6,5-benzothiazepin-7-yl]-1,2,4-oxadiazol-5-yl]cyclopropanecarbonitrile] | 315 | 6.43
12 | N#CC1(c2nc(-c3cc4c(cc3F)S(=O)(=O)C[C@H](N)C(=O)N4Cc3ccc(-c4ccc(C(F)(F)F)cn4)cc3)no2)CC1 [Example 17] | 221 | 5.81
13 | N[C@H]1CS(=O)(=O)c2cc(F)c(-c3noc(C4(CO)CCCO4)n3)cc2N(Cc2ccc(-c3noc(C(F)(F)F)n3)cc2)C1=O (stereo partly drawn) [Example 18, (3R)-3-amino-8-fluoro-7-[5-[2-(hydroxymethyl)tetrahydrofuran-2-yl]-1,2,4-oxadiazol-3-yl]-1,1-dioxo-5-[[4-[5-(trifluoromethyl)-1,2,4-oxadiazol-3-yl]phenyl]methyl]-2,3-dihydro-1λ^6,5-benzothiazepin-4-one] | 529 | 6.07
14 | CC(C)(C)c1nnc(-c2ccc(CN3C(=O)[C@@H](N)CS(=O)(=O)c4ccc(-c5nnc(C(C)(C)C)o5)cc43)cc2)o1 [Example 19, (3R)-3-amino-7-(5-tert-butyl-1,3,4-oxadiazol-2-yl)-5-[[4-(5-tert-butyl-1,3,4-oxadiazol-2-yl)phenyl]methyl]-1,1-dioxo-2,3-dihydro-1λ^6,5-benzothiazepin-4-one] | 40 | < 5.00
15 | Cc1cc(C)n(-c2ccc(CN3C(=O)[C@@H](N)CS(=O)(=O)c4ccc(-c5nnc(C(C)(C)C)o5)cc43)cc2)n1 [Example 22, (3R)-3-amino-7-(5-tert-butyl-1,3,4-oxadiazol-2-yl)-5-[[4-(3,5-dimethylpyrazol-1-yl)phenyl]methyl]-1,1-dioxo-2,3-dihydro-1λ^6,5-benzothiazepin-4-one] | 75 | 5.34
